This is an account of results in PubChem BioAssay AID1259246 (Broad Institute, 2017).

Records with an inconclusive call do not appear. Active and inactive are the calls of the source.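 The calls were made as follows: active = valid dose-response fit whose half-maximal growth-inhibiting concentration is at or below a set limit above the top tested dose; inconclusive = flat fit with effect between 30 and 70%, or poor fit; inactive = half-maximal concentration above a set limit.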

One assay in a line: antibacterial activity against Clostridioides difficile – 10-point retest, dose response (AID 1259246). The settings on record: Clostridioides difficile clinical isolate growth, OD600, 24 h; at 60 µM (top of the series).
With `COc1ccccc1C#Cc1ccc([C@H]2[C@@H](C#N)N(C(=O)C3CCCCC3)[C@H]2CO)cc1`, the activity change, negative = inhibition is 5.31% (inactive).

Turning to `C[C@@H]1CN([C@H](C)CO)C(=O)Cc2cc(NC(=O)CCCN(C)C)ccc2O[C@@H]1CN(C)Cc1ccc(-c2ccccc2)cc1`, the activity change, negative = inhibition was 28.6% (inactive).

For `CC(C)CC#Cc1ccc2c(c1)O[C@@H](CN(C)Cc1ccc(C(=O)O)cc1)[C@H](C)CN([C@@H](C)CO)S2(=O)=O`, the activity change, negative = inhibition was 2.34% (inactive).

On to `O=C(C[C@H]1C[C@@H]2c3cc(NC(=O)C4CCC4)ccc3O[C@@H]2[C@@H](CO)O1)NCc1ccncc1`, for which the activity change, negative = inhibition was -0.413% (inactive).

Turning to `C[C@H](CO)N1C[C@H](C)[C@@H](CN(C)S(=O)(=O)c2ccc(Cl)cc2)Oc2c(NC(=O)Nc3ccc(C(F)(F)F)cc3)cccc2C1=O`, the activity change, negative = inhibition was 25% (inactive).

With `O=C(C[C@H]1C[C@@H]2c3cc(NC(=O)C4CCC4)ccc3O[C@@H]2[C@@H](CO)O1)NCc1ccccc1`, the activity change, negative = inhibition was 6.59% (inactive).

As to `CO[C@@H]1CN(C)C(=O)c2ccc(NC(=O)c3ccc(-c4ccccc4)cc3)cc2OC[C@@H](C)NC[C@H]1C`, the activity change, negative = inhibition was 25.2% (inactive).

Consider `C[C@H]1CN([C@@H](C)CO)S(=O)(=O)c2ccc(C#CC3CCCC3)cc2O[C@@H]1CN(C)Cc1cccnc1`, for which the activity change, negative = inhibition is 7.15% (inactive).

Still in this assay, the particulars now being: Clostridioides difficile clinical isolate growth, OD600, 24 h; at 120 µM (top of the series).
`COc1ccc(CN2C[C@@H](C)[C@H](OC)CN(C)C(=O)c3ccc(NC(=O)c4nc5ccccc5s4)cc3OC[C@H]2C)cc1`: the activity change, negative = inhibition was 22.7% (inactive).

Consider `CNC[C@@H]1Oc2cc(C#CCC(C)C)ccc2S(=O)(=O)N([C@@H](C)CO)C[C@H]1C`, for which the activity change, negative = inhibition was 21.5% (inactive).

For `C[C@@H]1CN([C@H](C)CO)S(=O)(=O)c2ccc(C#CCN(C)C)cc2O[C@@H]1CN(C)Cc1ccc(F)cc1`, the activity change, negative = inhibition is 0.874% (inactive).

Consider `C[C@@H]1CN([C@H](C)CO)C(=O)c2cc(NC(=O)Nc3ccc4c(c3)OCO4)ccc2O[C@@H](C)CCCCO[C@H]1CN(C)S(=O)(=O)c1ccc(F)cc1`, for which the activity change, negative = inhibition is 13.1% (inactive).

For the molecule `C[C@@H]1CN([C@H](C)CO)C(=O)c2cc(NC(=O)c3ccccc3)ccc2O[C@@H](C)CCCCO[C@H]1CN(C)S(=O)(=O)c1ccc(F)cc1`, the activity change, negative = inhibition was 10.1% (inactive).

Regarding `C[C@@H]1CN([C@H](C)CO)S(=O)(=O)c2ccc(Br)cc2O[C@H]1CN(C)Cc1cccnc1`, the activity change, negative = inhibition is 0.001% (inactive).

Take `CC(C)NC(=O)N(C)C[C@@H]1OCCCC[C@H](C)Oc2ccc(NC(=O)Nc3cccc4ccccc34)cc2C(=O)N([C@H](C)CO)C[C@@H]1C`: the activity change, negative = inhibition is 60.5% (inactive).

Turning to `C[C@@H]1CN([C@@H](C)CO)C(=O)Cc2cc(NC(=O)CCCN(C)C)ccc2O[C@H]1CN(C)Cc1ccc(C(F)(F)F)cc1`, the activity change, negative = inhibition was 23.8% (inactive).

On to `CO[C@@H]1CN(C)C(=O)c2cc(NC(=O)c3ccc(-c4ccccc4)cc3)ccc2OC[C@H](C)NC[C@H]1C`, for which the activity change, negative = inhibition is 9.68% (inactive).

On to `C[C@H]1CN([C@@H](C)CO)S(=O)(=O)c2ccc(C#CC3CCCCC3)cc2O[C@H]1CN(C)Cc1cccnc1`, for which the activity change, negative = inhibition is 19.1% (inactive).

Regarding `Cc1ccc(-c2ccc3c(c2)O[C@@H](CN(C)Cc2cccnc2)[C@H](C)CN([C@@H](C)CO)S3(=O)=O)cc1`, the activity change, negative = inhibition was 10.2% (inactive).

In the case of `Cc1ccc(-c2ccc3c(c2)O[C@@H](CN(C)Cc2ccncc2)[C@H](C)CN([C@@H](C)CO)S3(=O)=O)cc1`, the activity change, negative = inhibition was 21.6% (inactive).

Take `CO[C@@H]1CN(C)C(=O)c2ccc(NC(=O)c3ccc(-c4ccccc4)cc3)cc2OC[C@H](C)NC[C@@H]1C`: the activity change, negative = inhibition is 17% (inactive).

In the case of `C[C@@H]1CN([C@H](C)CO)C(=O)Cc2cc(NC(=O)C3CC3)ccc2O[C@@H]1CN(C)Cc1ccc(Oc2ccccc2)cc1`, the activity change, negative = inhibition is 22.6% (inactive).

Turning to `O=C(N[C@H]1CC[C@H](CCNS(=O)(=O)c2ccc(Cl)cc2)O[C@H]1CO)c1cnccn1`, the activity change, negative = inhibition was -7.94% (inactive).

`COc1ccc(NC(=O)Nc2cccc3c2O[C@@H](CN(C)Cc2ccc(Oc4ccccc4)cc2)[C@H](C)CN([C@H](C)CO)C3=O)cc1`: the activity change, negative = inhibition is 16.6% (inactive).

On to `C[C@H](CO)N1C[C@H](C)[C@@H](CN(C)C(=O)Nc2ccccc2)OCCCC[C@H](C)Oc2ccc(NC(=O)Nc3cccc4ccccc34)cc2C1=O`, for which the activity change, negative = inhibition was 20.2% (inactive).

Regarding `C[C@@H]1CN([C@@H](C)CO)C(=O)Cc2cc(NC(=O)C3CC3)ccc2O[C@@H]1CN(C)Cc1ccc(-c2ccccc2)cc1`, the activity change, negative = inhibition was 20.7% (inactive).

As for `CNC[C@H]1Oc2c(NC(=O)Nc3ccc4c(c3)OCO4)cccc2C(=O)N([C@@H](C)CO)C[C@H]1C`, the activity change, negative = inhibition was 4.27% (inactive).

On to `C[C@H](CO)N1C[C@H](C)[C@H](CN(C)Cc2ccc(-c3ccccc3)cc2)Oc2c(NC(=O)Nc3ccc(C(F)(F)F)cc3)cccc2C1=O`, for which the activity change, negative = inhibition was 16.3% (inactive).

With `O=C(C[C@@H]1C[C@@H]2c3cc(NC(=O)C4CCC4)ccc3O[C@@H]2[C@@H](CO)O1)NCc1ccc(Cl)cc1`, the activity change, negative = inhibition is -5.46% (inactive).

Regarding `Cc1ccc(S(=O)(=O)N[C@@H]2CC[C@H](CCNS(=O)(=O)Cc3ccccc3)O[C@H]2CO)cc1`, the activity change, negative = inhibition was -2.21% (inactive).

With `C[C@H](CO)N1C[C@H](C)[C@@H](CN(C)C(=O)Cc2cccnc2)Oc2cc(C#Cc3ccccc3F)ccc2S1(=O)=O`, the activity change, negative = inhibition is 40.8% (inactive).

In the case of `C[C@H](CO)N1C[C@H](C)[C@@H](CN(C)C(=O)Nc2cccc3ccccc23)Oc2ccc(NC(=O)CCN3CCOCC3)cc2C1=O`, the activity change, negative = inhibition is 38.8% (inactive).

Take `C[C@H](CO)N1C[C@H](C)[C@H](CN(C)Cc2ccc(-c3ccccc3)cc2)Oc2ccc(NC(=O)CCCN(C)C)cc2CC1=O`: the activity change, negative = inhibition is 37.3% (inactive).

For `C[C@H](CO)N1C[C@H](C)[C@@H](CN(C)C(=O)NC2CCCCC2)Oc2c(NC(=O)Nc3ccccc3)cccc2C1=O`, the activity change, negative = inhibition is 12.2% (inactive).

Regarding `C[C@@H]1CN([C@H](C)CO)C(=O)c2cc(NS(=O)(=O)c3ccccc3)ccc2O[C@@H](C)CCCCO[C@H]1CN(C)S(=O)(=O)c1ccc(F)cc1`, the activity change, negative = inhibition was 12.7% (inactive).

`CO[C@H]1CN(C)C(=O)c2cc(NC(=O)c3nc4ccccc4s3)ccc2OC[C@@H](C)N(Cc2ccncc2)C[C@@H]1C`: the activity change, negative = inhibition was 5.15% (inactive).

Consider `C[C@@H]1CCCCO[C@@H](CN(C)S(=O)(=O)c2ccc(F)cc2)[C@H](C)CN([C@H](C)CO)C(=O)c2cc(NC(=O)Nc3cccc4ccccc34)ccc2O1`, for which the activity change, negative = inhibition was 34.2% (inactive).

As for `C[C@@H]1CN([C@H](C)CO)C(=O)Cc2cc(NC(=O)CCCN(C)C)ccc2O[C@H]1CN(C)Cc1ccc(Oc2ccccc2)cc1`, the activity change, negative = inhibition is 17.1% (inactive).

Consider `COc1ccc(S(=O)(=O)N(C)C[C@H]2Oc3c(NC(=O)Nc4ccc5c(c4)OCO5)cccc3C(=O)N([C@@H](C)CO)C[C@H]2C)cc1`, for which the activity change, negative = inhibition is 11.1% (inactive).

Consider `C[C@H](CO)N1C[C@H](C)[C@@H](CN(C)S(=O)(=O)c2ccc(Cl)cc2)Oc2c(NC(=O)Nc3ccc(C(F)(F)F)cc3)cccc2C1=O`, for which the activity change, negative = inhibition is 61.8% (inactive).

For `C[C@H](CO)N1C[C@H](C)[C@@H](CN(C)Cc2ccc(-c3ccccc3)cc2)Oc2c(NC(=O)Nc3ccc(C(F)(F)F)cc3)cccc2C1=O`, the activity change, negative = inhibition is 12.2% (inactive).

Take `CO[C@@H]1CN(C)C(=O)c2ccc(NC(=O)c3nc4ccccc4s3)cc2OC[C@@H](C)N(Cc2ccncc2)C[C@@H]1C`: the activity change, negative = inhibition was 14.1% (inactive).

With `C[C@@H]1CN([C@@H](C)CO)C(=O)c2cccc(NC(=O)Nc3ccc(C(F)(F)F)cc3)c2O[C@H]1CN(C)C(=O)NC1CCCCC1`, the activity change, negative = inhibition was 15.3% (inactive).

For `C/C=C/c1ccc2c(c1)O[C@H](CN(C)CC1CCOCC1)[C@H](C)CN([C@H](C)CO)S2(=O)=O`, the activity change, negative = inhibition was -5.69% (inactive).

As to `C[C@@H]1CCCCO[C@@H](CN(C)S(=O)(=O)c2ccc(F)cc2)[C@@H](C)CN([C@@H](C)CO)C(=O)c2cc(NC(=O)Nc3cccc4ccccc34)ccc2O1`, the activity change, negative = inhibition was 12.1% (inactive).

On to `Cc1ccc(S(=O)(=O)N[C@H]2CC[C@H](CCNC(=O)Cc3ccccn3)O[C@H]2CO)cc1`, for which the activity change, negative = inhibition is -0.997% (inactive).

The same assay, now with this note: Clostridioides difficile clinical isolate growth, OD600, 24 h; at 135 µM (top of the series).
Consider `O=C(N[C@H]1CC[C@H](CCNS(=O)(=O)Cc2ccccc2)O[C@H]1CO)c1ccccc1F`, for which the activity change, negative = inhibition is -3.44% (inactive).

`C[C@@H]1CN([C@H](C)CO)C(=O)c2cc(NC(=O)Nc3ccc4c(c3)OCO4)ccc2O[C@H]1CN(C)Cc1ccccc1`: the activity change, negative = inhibition is -5.34% (inactive).

On to `O=C(C[C@H]1C[C@@H]2c3cc(NC(=O)C4CCC4)ccc3O[C@@H]2[C@@H](CO)O1)NCc1ccc2c(c1)OCO2`, for which the activity change, negative = inhibition was -9.69% (inactive).

Consider `C[C@H]1CN([C@@H](C)CO)C(=O)Cc2cc(NC(=O)CCCN(C)C)ccc2O[C@H]1CN(C)Cc1ccc(Oc2ccccc2)cc1`, for which the activity change, negative = inhibition was 10.5% (inactive).

Consider `C[C@H](CO)N1C[C@H](C)[C@H](CN(C)Cc2ccc(Oc3ccccc3)cc2)Oc2ccc(NC(=O)CCCN(C)C)cc2CC1=O`, for which the activity change, negative = inhibition was 34.3% (inactive).

With `CNC[C@H]1Oc2ccc(NC(=O)C3CC3)cc2CC(=O)N([C@@H](C)CO)C[C@H]1C`, the activity change, negative = inhibition was -0.275% (inactive).

As to `COc1ccc(S(=O)(=O)N(C)C[C@H]2Oc3ccc(NC(=O)C4CC4)cc3CC(=O)N([C@H](C)CO)C[C@H]2C)cc1`, the activity change, negative = inhibition is -2.76% (inactive).

With `C[C@@H]1CN([C@@H](C)CO)C(=O)Cc2cc(NC(=O)CCCN(C)C)ccc2O[C@@H]1CN(C)Cc1ccc(Oc2ccccc2)cc1`, the activity change, negative = inhibition was 18% (inactive).

`C[C@@H]1CN([C@@H](C)CO)C(=O)c2cc(NC(=O)Nc3cccc4ccccc34)ccc2O[C@@H](C)CCCCO[C@@H]1CN(C)S(=O)(=O)c1ccc(F)cc1`: the activity change, negative = inhibition was 17.6% (inactive).
